In series [1] the target is T1, SST2 (Mus musculus, UniProt P30875).
T1 construct: endogenous in cells; host or cells: MPC (mouse pheochromocytoma) cells, passages 35-40
The experiment in a line: Saturation binding of 64Cu-labeled radioligands to MPC cell homogenates. The following applies: read-out: Kd, MPC cell homogenate.
Experimental: MPC cells (passages 35–40) were routinely cultured in collagen-coated flasks as described elsewhere[49] and harvested at 70–80% confluency in Dulbecco’s phosphate-buffered saline containing 2.0 mM ethylenediaminetetraacetic acid (EDTA) at 4 °C for 30 min. Cells were resuspended and frozen in fetal bovine serum containing 10% (v/v) DMSO and stored at −70 °C. After thawing, cells were washed and resuspended in ice-cold saturation assays buffer, pH 7.4, containing 50 mM Tris-HCl, 1 mM EDTA, 0.5 mM o-phenanthroline, and 0.1% (w/v) bovine serum albumin. Cells were homogenized in ice-cold saturation assay buffer supplemented with complete EDTA-free proteinase inhibitor (Roche, Basel Switzerland) using a Dounce homogenizer. Protein content of cell homogenates was measured at A280nm (setting 1 Abs = 1 mg/mL) using a nanodrop spectrophotometer (Thermo-Fisher Scientific).
For the measurement of total binding, 0.155 mL of cell homogenates were incubated with radioligands (molar activity (Am) = 25 MBq/nmol) at increasing final concentrations between 0.625 and 40 nM (final sample volume 0.2 mL) in Polystyrene tubes (5 mL, round bottom, clear, Greiner bio-one, Item no. 115101). […] Activity bound to filters was measured using the gamma counter Wizard (PerkinElmer). Activity in a series of radioligand standards was measured at increasing molar amounts between 0.625 and 40 nM. […]

Series [2] deals with T1, SST2. The experiment in a line: Saturation binding of 64Cu-labeled radioligands to intact MPC cells (adherent). The following applies: 1 h, 37 °C, mean (68% confidence interval) of one experiment in duplicate or triplicate.
Experimental: A number of 3 × 10^5 cells/cm^2 were seeded in collagen-coated 48-well microplates (CELLSTAR 48 Well Cell Culture Multiwell Plates, Polystyrene, Greiner bio-one, Item no. 677180) and grown for three days. For binding assays, cell culture medium was removed and replaced by fresh medium supplemented with the radioligand (Am = 25 MBq/nmol) at increasing final concentrations between 0.321 and 40 nM (final sample volume 0.2 mL). […] Samples were incubated for 60 min at 37 °C. Incubation was stopped by washing with ice-cold Dulbecco’s PBS. Cells were lysed with 0.1 M NaOH containing 1% (w/v) SDS. Activity was measured in cell homogenates and in a series of radioligand standards containing increasing molar amounts between 0.06 and 8 pmol using the gamma counter Wizard (PerkinElmer). […] Measurements for total binding were performed in triplicate, while measurements for nonspecific binding were performed in duplicates.
Plots of “total binding” = f(radioligand) were analyzed by nonlinear regressions using the model of “one site—total, accounting for ligand depletion” as implemented in GraphPad Prism and Plots of “nonspecific binding” = f(radioligand) were analyzed by linear regressions. For the ligand depletion model, the term “NS” was constrained to the respective slopes obtained by the linear regressions. […]
Series [3] deals with MPC cells. More on the design: method as in Brandt et al.[16], Brandt et al.[17]. Particulars: intact MPC cells, 20 nM radioligand, 1 h, 37 °C, acid wash glycine pH 2.8; previously published; ref Brandt et al.[16], Brandt et al.[17]; cited from earlier work.
A short description of series [4]: Radioligand stability toward MPC cell homogenate under assay conditions. The class given is in vitro ADME, mouse. The following applies: 40 nM radioligand, 37 °C, radio-HPLC of supernatant. An excerpt:
(§1) Considering the aforementioned exposure of the radioligands to intracellular components in cell homogenates, a degradation by intracellular proteases could lead to reduced radioligand concentrations and thus apparently higher Kd values. While most of the serine and cysteine proteases might be inhibited by the used inhibitor cocktail during homogenization (see Materials and Methods), a residual proteolytic activity cannot be excluded. Therefore, for the two radioligands, [^64Cu]Cu-NODAGA-NES2-TATE and [^64Cu]Cu-NODAGA-NES5-TATE, the stability toward cell homogenates and intact cells under assay conditions were exemplarily examined (Figure S3 in the Supporting Information).
(§2) Figure S3: Stability toward cell homogenate and intact cells
(§3) [64Cu]Cu-NODAGA-NES2-TATE and [64Cu]Cu-NODAGA-NES5-TATE (40 nM) were incubated at 37°C under assay conditions in the presence of MPC cell homogenate or MPC intact cells. After 1 h, an aliquot (160 µL) was withdrawn, mixed with “Supersol” (320 µL), which consists of 20% ethanol, 0.5% Triton X-100, 5 mM EDTA, 0.5 mM o-phenanthroline, and 0.1% saponin. This was followed by centrifugation at 13,500 rpm for 3 min (Thermo Scientific Heraeus Fresco 21). The supernatant was analyzed by radio-HPLC.1, 2 […]
(§4) (1 picture or pasted object on this page, not shown here)

The nature of series [5]: Radioligand stability toward intact MPC cells under assay conditions. The class given is in vitro ADME, mouse. Particulars: 40 nM radioligand, 37 °C, radio-HPLC of supernatant.
Excerpt: as §1, §2, §3, §4

Series [6] relates to MPC cells. The experiment in a line: Cell binding and uptake (acid wash) in MPC cells. The series is classed as cell-based, mouse. Particulars: intact MPC cells, 20 nM radioligand, 1 h, 37 °C, acid wash 0.05 M glycine pH 2.8 for 5 min; nonspecific with 20 μM Acetyl-TATE; from mean values of one experiment in sextuplicate. As for the experimental part: MPC cells were seeded into collagen-coated 24-well microplates and cultivated for 4 days. All washing steps were performed using PBS containing 0.9 mM CaCl2 and 0.5 mM MgCl2. Total radioligand uptake was measured after incubation with the radioligand (Am = 30 GBq/μmol) at a final concentration of 20 nM in RPMI 1640 medium with GlutaMAX supplement (Thermo Fisher Scientific) for 1 h at 37 and 4 °C. Nonspecific binding was determined in the presence of 20 μM Acetyl-TATE. The uptake fraction was measured after acid wash of cell surface-bound radioligand with wash buffer containing 0.05 M glycine, pH 2.8, for 5 min. The activity of cell homogenates was measured using the γ counter Wizard (PerkinElmer). The protein content of cell homogenates was measured as described above.
Nonspecific binding was determined in the presence of 20 µM Acetyl -TATE (radioligand concentration of 20 nM). Data shown in A and B are mean values (±SD) of one experiment, which was performed in sextuplicate. In C, the uptake fraction (“internalized” or not acid releasable radioligand, red bars in A, mean values) is expressed as percentage of specific total-bound radioligand (blue bars in A, mean values). The difference to 100% was assigned to “surface-bound” radioligand. For a better overview, the compound names were abbreviated. […]
specific binding of radioligand
Incubation at 37°C for 1 h […]

Read-outs that look alike come from different tables or passages of the source. Marks after values point to notes of the source that are not given here. Positions of bridges follow the written chain, without caps; N, C: chain ends. Non-standard residues stand in square brackets, D forms with d. Residues, ends and D or L forms follow the SMILES beside them. *: point of attachment. NODAGA = O=C(O)CN1CCN(CC(=O)O)CCN(C(CCC(=O)*)C(=O)O)CC1; dPhe(4-NHCONH2) = NC(=O)Nc1ccc(C[C@@H](N)C(=O)O)cc1; Dihydroorotyl(S) = O=C1C[C@@H](C(=O)*)NC(=O)N1; Phe(4-Cl) = N[C@@H](Cc1ccc(Cl)cc1)C(=O)O; Phe(4-NH2) = Nc1ccc(C[C@H](N)C(=O)O)cc1

T1 sequence (P30875 whole entry): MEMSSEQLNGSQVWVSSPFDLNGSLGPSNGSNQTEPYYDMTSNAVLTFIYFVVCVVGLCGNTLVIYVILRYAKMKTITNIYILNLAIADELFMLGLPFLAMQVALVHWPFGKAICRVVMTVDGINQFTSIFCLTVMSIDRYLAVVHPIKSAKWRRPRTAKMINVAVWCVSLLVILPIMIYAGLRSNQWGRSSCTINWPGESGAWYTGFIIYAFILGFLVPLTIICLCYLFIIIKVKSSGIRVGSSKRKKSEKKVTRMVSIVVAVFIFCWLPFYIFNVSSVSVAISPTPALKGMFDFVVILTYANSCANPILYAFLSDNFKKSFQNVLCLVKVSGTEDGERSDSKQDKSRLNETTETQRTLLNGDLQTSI

For the compound `C[C@@H](O)[C@@H]1NC(=O)[C@H](CCCCN)NC(=O)[C@@H](Cc2ccc(NC(N)=O)cc2)NC(=O)[C@H](Cc2ccc(NC(=O)[C@@H]3CC(=O)NC(=O)N3)cc2)NC(=O)[C@H](NC(=O)[C@H](Cc2ccc(Cl)cc2)NC(=O)CCC(C(=O)O)N2CCN(CC(=O)O)CCN(CC(=O)O)CC2)CSSC[C@@H](C(=O)N[C@H](Cc2ccc(O)cc2)C(N)=O)NC1=O` (stereo partly drawn) [JR11] ({NODAGA}-[Phe(4-Cl)][dC][Phe(4-NH2)](Dihydroorotyl(S))[dPhe(4-NHCONH2)]KTC[dY]-NH2; disulfide 2-7), the results for the Kd in series [1] and in series [2] were 5.35 nM and 8.17 nM, respectively.
In the case of `CCCC[C@H](NC(=O)CCC(C(=O)O)N1CCN(CC(=O)O)CCN(CC(=O)O)CC1)C(=O)N[C@H](C(=O)N[C@@H](CCCCN=[N+]=[N-])C(=O)NCCOCCOCC(=O)N[C@H](Cc1ccccc1)C(=O)N[C@H]1CSSC[C@@H](C(=O)N[C@H](C(=O)O)[C@@H](C)O)NC(=O)[C@H]([C@@H](C)O)NC(=O)[C@H](CCCCN)NC(=O)[C@@H](Cc2c[nH]c3ccccc23)NC(=O)[C@H](Cc2ccc(O)cc2)NC1=O)C(C)C` (stereo partly shown) [NES1-TATE], the “uptake fraction (internalized or not acid releasable radioligand) as percentage of specific total-bound radioligand” value in series [3] was 49 ^d %.
As to `CCCC[C@H](NC(=O)c1ccc(CNC(=O)CCC(C(=O)O)N2CCN(CC(=O)O)CCN(CC(=O)O)CC2)cc1)C(=O)N[C@H](C(=O)N[C@@H](CCCCN=[N+]=[N-])C(=O)NCCOCCOCC(=O)N[C@H](Cc1ccccc1)C(=O)N[C@H]1CSSC[C@@H](C(=O)N[C@H](C(=O)O)[C@@H](C)O)NC(=O)[C@H]([C@@H](C)O)NC(=O)[C@H](CCCCN)NC(=O)[C@@H](Cc2c[nH]c3ccccc23)NC(=O)[C@H](Cc2ccc(O)cc2)NC1=O)C(C)C` (stereo partly shown) [NES2-TATE], the “stability (radioligand remaining stable) after 1 h of incubation with MPC cell homogenate” value in series [4] was no less than 87%. For the same compound, the “uptake fraction (internalized or not acid releasable radioligand) as percentage of specific total-bound radioligand” value in series [3] is recorded as 56 ^d %. The “stability (radioligand remaining stable) after 1 h of incubation with intact MPC cells” value in series [5] is on record as no less than 87%.
For `C[C@@H](O)[C@H](NC(=O)[C@@H]1CSSC[C@H](NC(=O)[C@@H](Cc2ccccc2)NC(=O)COCCOCCNC(=O)[C@H](CCCCN=[N+]=[N-])NC(=O)[C@H](Cc2ccccc2)NC(=O)CNC(=O)c2ccc(CNC(=O)CCC(C(=O)O)N3CCN(CC(=O)O)CCN(CC(=O)O)CC3)cc2)C(=O)N[C@@H](Cc2ccc(O)cc2)C(=O)N[C@H](Cc2c[nH]c3ccccc23)C(=O)N[C@@H](CCCCN)C(=O)N[C@@H]([C@@H](C)O)C(=O)N1)C(=O)O` (stereo partly shown) [NES3-TATE], the “uptake fraction (internalized or not acid releasable radioligand) as percentage of specific total-bound radioligand” value in series [3] is recorded as 68 ^d %.
As to `C[C@@H](O)[C@H](NC(=O)[C@@H]1CSSC[C@H](NC(=O)[C@@H](Cc2ccccc2)NC(=O)COCCOCCNC(=O)[C@H](CCCCN=[N+]=[N-])NC(=O)[C@H](Cc2ccccc2)NC(=O)CNC(=O)[C@@H](CCCNC(=N)N)NC(=O)c2ccc(CNC(=O)CCC(C(=O)O)N3CCN(CC(=O)O)CCN(CC(=O)O)CC3)cc2)C(=O)N[C@@H](Cc2ccc(O)cc2)C(=O)N[C@H](Cc2c[nH]c3ccccc23)C(=O)N[C@@H](CCCCN)C(=O)N[C@@H]([C@@H](C)O)C(=O)N1)C(=O)O` (stereo partly shown) [NES4-TATE], the “uptake fraction (internalized or not acid releasable radioligand) as percentage of specific total-bound radioligand” value in series [3] is listed as 53 ^d %.
With `C[C@@H](O)[C@H](NC(=O)[C@@H]1CSSC[C@H](NC(=O)[C@@H](Cc2ccccc2)NC(=O)COCCOCCNC(=O)[C@H](CCCCn2cc(CCC(=O)N[C@@H](CCCCNC(=O)CCCc3ccc(I)cc3)C(=O)O)nn2)NC(=O)[C@H](Cc2ccccc2)NC(=O)CNC(=O)[C@@H](CCCNC(=N)N)NC(=O)c2ccc(CNC(=O)CCC(C(=O)O)N3CCN(CC(=O)O)CCN(CC(=O)O)CC3)cc2)C(=O)N[C@@H](Cc2ccc(O)cc2)C(=O)N[C@H](Cc2c[nH]c3ccccc23)C(=O)N[C@@H](CCCCN)C(=O)N[C@@H]([C@@H](C)O)C(=O)N1)C(=O)O` (stereo partly shown) [NES5-TATE], the “stability (radioligand remaining stable) after 1 h of incubation with MPC cell homogenate” value in series [4] is reported as no less than 87%. The “uptake fraction (internalized or not acid releasable radioligand) as percentage of specific total-bound radioligand” value in series [3] is given as 62 ^d %. For the same compound, the “stability (radioligand remaining stable) after 1 h of incubation with intact MPC cells” value in series [5] is listed as no less than 87%.
`C#CC[C@H](NC(=O)CCC(C(=O)O)N1CCN(CC(=O)O)CCN(CC(=O)O)CC1)C(=O)NCCOCCOCC(=O)N[C@H](Cc1ccccc1)C(=O)N[C@H]1CSSC[C@@H](C(=O)N[C@H](C(=O)O)[C@@H](C)O)NC(=O)[C@H]([C@@H](C)O)NC(=O)[C@H](CCCCN)NC(=O)[C@@H](Cc2c[nH]c3ccccc23)NC(=O)[C@H](Cc2ccc(O)cc2)NC1=O` (stereo partly shown) [Pra-PEG2-TATE]: the “uptake fraction (internalized or not acid releasable radioligand) as percentage of specific total-bound radioligand” value in series [6] stood at 48%.
On the same count and under the same terms, the figure for `C[C@@H](O)[C@H](NC(=O)[C@@H]1CSSC[C@H](NC(=O)[C@@H](Cc2ccccc2)NC(=O)COCCOCCNC(=O)[C@H](Cc2cn(CCCCC(=O)N[C@H](CCCCNC(=O)CCCc3ccc(I)cc3)C(=O)O)nn2)NC(=O)CCC(C(=O)O)N2CCN(CC(=O)O)CCN(CC(=O)O)CC2)C(=O)N[C@@H](Cc2ccc(O)cc2)C(=O)N[C@H](Cc2c[nH]c3ccccc23)C(=O)N[C@@H](CCCCN)C(=O)N[C@@H]([C@@H](C)O)C(=O)N1)C(=O)O` (stereo partly shown) [cLAB1-TATE] is 66%.

As a reminder, the Kd is a measure of binding affinity in units of concentration.
